Where two headings read alike, the source gives them in different places.
Assays:
[1] = biological target: T1, ERα (Homo sapiens, UniProt P03372); assay: Fluorescence Polarization Competition Assay, ERα binding affinity; conditions: Fluormone ligand, read-out: Affinity for ER α
T1 construct: purchased Panvera P2698
T1 sequence (P03372 1-595): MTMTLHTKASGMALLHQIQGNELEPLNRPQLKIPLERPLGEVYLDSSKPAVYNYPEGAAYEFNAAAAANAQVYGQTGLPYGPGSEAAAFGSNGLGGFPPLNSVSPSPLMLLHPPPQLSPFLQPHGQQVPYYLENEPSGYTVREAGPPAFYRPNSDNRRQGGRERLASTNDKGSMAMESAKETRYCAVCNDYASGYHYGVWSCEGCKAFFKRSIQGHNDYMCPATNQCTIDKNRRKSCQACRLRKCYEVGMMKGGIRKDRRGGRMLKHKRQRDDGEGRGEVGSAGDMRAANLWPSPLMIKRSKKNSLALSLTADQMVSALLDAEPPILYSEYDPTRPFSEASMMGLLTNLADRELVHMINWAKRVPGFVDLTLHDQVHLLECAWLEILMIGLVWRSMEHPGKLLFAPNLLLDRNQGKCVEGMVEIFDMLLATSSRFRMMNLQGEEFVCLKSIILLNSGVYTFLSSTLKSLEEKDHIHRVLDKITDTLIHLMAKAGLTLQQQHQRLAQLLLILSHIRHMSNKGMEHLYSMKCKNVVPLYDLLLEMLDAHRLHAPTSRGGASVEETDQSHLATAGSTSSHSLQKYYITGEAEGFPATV
Procedure: (§1) A number of compounds were tested for ERα and ERβ binding affinity using Panvera's Fluorescence Polarization Competition Assay Kits (cat. nos. P2698 and P2700). Briefly, ERα or ERβ were thawed on ice from −80° C. An estrogen receptor and fluorescent ligand (Fluormone TM) complex was formed at a 15/1 molar ratio for ERα and at a 10/1 molar ratio for ERβ (2X complex). Serial dilutions of the test compounds were made in assay buffer and the assay was initiated by adding 50 ul of the 2X receptor-ligand complex to 50 ul of compound solution in black 96-well plates. Zero percent competition (theoretical maximum polarization) was measured in wells containing 50 ul of buffer and 50 ul of the 2X receptor-ligand complex. The plates were incubated after gentle shaking in the dark at room temperature. Polarization values (mP) were read no longer than 7 hours after the reaction was started with a FARCyte Fluorescent reader (Amersham) at excitation and emission wavelengths of 485 nm and 535 nm, respectively. Data was analyzed using non-linear regression and IC50 values determined using GraphPad Prism. Estradiol was used as the reference compound.

[2] = biological target: T2, ERβ (Homo sapiens, UniProt Q92731); assay: Fluorescence Polarization Competition Assay, ERβ binding affinity; conditions: Fluormone ligand, read-out: Affinity for ER β
T2 construct: purchased Panvera P2700
T2 sequence (Q92731 whole entry): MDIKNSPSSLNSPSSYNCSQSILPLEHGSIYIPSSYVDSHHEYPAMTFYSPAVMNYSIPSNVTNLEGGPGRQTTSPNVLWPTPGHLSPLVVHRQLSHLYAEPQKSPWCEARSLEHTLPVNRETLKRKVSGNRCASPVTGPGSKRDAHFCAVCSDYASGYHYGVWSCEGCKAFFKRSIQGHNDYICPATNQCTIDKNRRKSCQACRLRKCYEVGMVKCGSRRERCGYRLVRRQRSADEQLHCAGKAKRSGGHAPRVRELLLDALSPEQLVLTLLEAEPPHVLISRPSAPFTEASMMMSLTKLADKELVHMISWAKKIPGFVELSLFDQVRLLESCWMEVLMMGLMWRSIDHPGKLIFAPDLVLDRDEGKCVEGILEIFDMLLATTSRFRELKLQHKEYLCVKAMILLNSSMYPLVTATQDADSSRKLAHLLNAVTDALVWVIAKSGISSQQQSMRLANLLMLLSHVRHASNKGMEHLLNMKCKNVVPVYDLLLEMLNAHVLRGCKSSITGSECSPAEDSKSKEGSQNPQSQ
Procedure: as §1

[3] = system: primary rat oligodendrocyte progenitor cells; assay: Oligodendrocyte Toxicity Assay (LDH), progenitor cells; type: cell-based; conditions: Oligodendrocyte progenitor cell, 1 hour pretreatment, LDH after 24 hours
Procedure: (§2) Primary rat oligodendrocyte progenitor cells were obtained from the cerebra of 2-3 day old postnatal rats (Sprague Dawley). The meninges were removed and tissue was mechanically dissociated. Cells were plated on T75 flasks and fed with DMEM +10% FBS.
(§3) Enriched OLPs were collected by mechanical separation from the astrocytic monolayer and were expanded in serum free media (SFM) supplemented with the mitogens, PDGF-AA (10 ng/mI) and FGF-2 (10 ng/mI).
Cells were plated in 96-well plates, 10,000 per well. Medium was changed to fresh medium and cells were pretreated with compounds for 1 hour. Toxins were added to give the following final concentrations: Sin-110 mM, Camptothecin 1 μM
(§4) After 24 hours, medium was removed and assayed for LDH activity using the Promega cytotox 96 kit (catalog# G1780). Results were calculated as percent protection against toxin-induced toxicity.
(§5) These compounds have been assessed for their efficacy in protection against cell death produced by toxic agents such as SIN-1 (3-morpholino-sydnonimine, producing peroxynitrite) and camptothecin. The target cells assessed in vitro are primary cultures of rodent oligodendrocyte progenitors and their mature counterparts.

[4] = system: mature oligodendrocytes; assay: Oligodendrocyte Toxicity Assay (LDH), mature oligodendrocytes; type: cell-based; conditions: Rattus norvegicus; protection against SIN-1-induced toxicity; 1 hour pretreatment, LDH after 24 hours
Procedure: as §2, §3
To generate mature oligodendrocytes, progenitor cells were switched to SFM supplemented with IGF-1 (10ng/ml) 24 hours after plating and cells were grown under these conditions for 7 days prior to experimental assays.
Cells were plated in 96-well plates, 10,000 per well. Medium was changed to fresh medium and cells were pretreated with compounds for 1 hour. […]
as §4, §5

IC50 [1]: 0.0354 µM
IC50 [2]: 0.003 µM
SMILES: Oc1ccc(-c2ccc3cc(O)ccc3c2Cl)cc1 [5-chloro-6-(4-hydroxyphenyl)-2-naphthalenol]
IC50 ([3]; protection against SIN-1-induced toxicity, read-out: Progenitor Oligodendrocytes SIN-1 IC50): 2.17 µM
IC50 ([3]; protection against camptothecin (1 μM)-induced toxicity, read-out: Progenitor Oligodendrocytes Camptothecin IC50): < 3 µM
IC50 [4]: > 30 µM

— patent US20070249732A1, “USE OF CERTAIN PHENYL NAPTHYL COMPOUNDS FOR PROTECTION OF NEURONS AND OLIGODENDROCYTES IN THE TREATMENT OF MULTIPLE SCLEROSIS (MS)” (AVENTIS PHARMACEUTICALS INC., priority 2005, published 2007)
